Data as given in publication PMC2361651 (British Journal of Cancer, 2005).
Like-named read-outs stand apart in the source and are kept apart here.

Tests used:
[1] = Phase I safety and tolerability, twice weekly intravenous infusion
[2] = Plasma pharmacokinetics of SU5416 and metabolites in Phase I patients (HPLC UV); assay type: in vivo, human; conditions: for Vd / AUC(0-t) / clearance / half-life / Cmax / AUC: human; for half-life: read-out: T1/2λz (converted); for Cmax: read-out: Cmax
Method: Samples were taken prior to treatment infusion, 15 min into the infusion, at completion of the infusion and then at 5, 10, 20, 30, 45, 60, 120 and 240 min following the infusion. […] At the designated times, 4.0 ml of blood were collected into a lithium heparin tube, gently inverted and placed on ice to maintain the sample at 2–8°C. All samples were immediately centrifuged at 6000 r.p.m. at 4°C for 10 min, the supernatant divided between two 1.5 ml Nalgene cryovials and snap frozen in liquid nitrogen. Separated plasma samples were subsequently stored at −70°C until analysis.
Pharmacokinetic analysis was performed using a fully validated HPLC UV method ([Stopeck et al, 2002]). Plasma samples, standards (25–2000 ng ml^−1) and quality controls spiked with internal standards were extracted with acetonitrile. Following centrifugation, drying and reconstitution in 200 μl mobile phase, 20 μl were analysed by HPLC UV. Chromatography was carried out using a C18 analytical column, with a gradient mobile phase containing acetonitrile and 10 mM ammonium formate at pH 2.6. The flow rate was 0.8 ml min^−1 and the run-time 21 min. Detection was via UV absorption at a wavelength of 440 nm. The accuracy of the assay, reflected in relative error of measured concentration to theoretical (prepared) concentrations, was between 0.9 and 5.6% for all quality control samples.
Pharmacokinetic parameters were evaluated using WinNonLin Software®.

[3] = in vivo, iv, 145 mg m^−2, individual patients, twice weekly i.v. infusion, dose 145 mg m^−2, cycle 1inj8
[4] = in vivo, iv, 145 mg m^−2, individual patients, twice weekly i.v. infusion, dose 145 mg m^−2, cycle 2inj8
[5] = in vivo, iv, individual patients, twice weekly i.v. infusion, dose 145 → 190 mg m^−2, cycle 2inj1
[6] = in vivo, iv, individual patients, twice weekly i.v. infusion, dose 145 → 190 mg m^−2, cycle 2inj8
[7] = in vivo, iv, individual patients, twice weekly i.v. infusion, dose 145 → 190 mg m^−2, cycle 3inj2
[8] = plasma, iv, 48 mg m^−2, individual patients, twice weekly i.v. infusion, dose 48 mg m^−2, cycle 1inj2
[9] = plasma, iv, 48 mg m^−2, individual patients, twice weekly i.v. infusion, dose 48 mg m^−2, cycle 1inj8
[10] = plasma, iv, 48 mg m^−2, individual patients, twice weekly i.v. infusion, dose 48 mg m^−2, cycle 2inj8
[11] = plasma, iv, 65 mg m^−2, individual patients, twice weekly i.v. infusion, dose 65 mg m^−2, cycle 1inj2
[12] = plasma, iv, 65 mg m^−2, individual patients, twice weekly i.v. infusion, dose 65 mg m^−2, cycle 1inj3
[13] = plasma, iv, 65 mg m^−2, individual patients, twice weekly i.v. infusion, dose 65 mg m^−2, cycle 1inj8

Cc1cc(C)c(/C=C2\C(=O)Nc3ccccc32)[nH]1 [SU5416, Z-3-[(2,4-dimethylpyrrol-5-yl)methylidenyl]-2-indolinone]
pain or burning discomfort in tumour-related sites shortly after infusion, patients ([1]; dose expansion cohort): three | dysphonia, patients ([1]; therapy for 6 weeks or more, reversible over several months): Two | Venous thrombotic events, patients ([1]; thrombosis of the inferior vena cava and a pulmonary embolism, differing dose levels): two | recommended dose for future study ([1]; twice weekly intravenous infusion): 145 mg m^−2 | maximum-tolerated dose ([1]; twice weekly intravenous infusion, 48 to 190 mg m^−2): not identified | average increase in drug clearance ([2]; day 4 vs day 25, five of the nine patients dosed at the same level on both days): 22% | dose linearity of kinetics ([2]; dose range 48–145 mg m^−2, initial assessment and day 25): linear kinetics | Vd ([2]; in vivo, iv, 48 mg m^−2, individual patients, twice weekly i.v. infusion, dose 48 mg m^−2, cycle 1inj2, read-out: Vz (observed)): 142 L | AUC(0-t) ([2]; in vivo, iv, 48 mg m^−2, individual patients, twice weekly i.v. infusion, dose 48 mg m^−2, cycle 1inj8): 816 ng·h/mL | clearance ([2]; in vivo, iv, 85 mg m^−2, individual patients, twice weekly i.v. infusion, dose 85 mg m^−2, cycle 1inj8, read-out: CL (observed) (converted)): 2520 mL/min | half-life ([2]; in vivo, iv, 145 mg m^−2, individual patients, twice weekly i.v. infusion, dose 145 mg m^−2, cycle 1inj2): 52.2 min | AUC(0-t) [2, 3]: 4430 ng·h/mL | Cmax [2, 3]: 3920 ng/mL | half-life [2, 3]: 34.2 min | AUC(0-t) [2, 4]: 1780 ng·h/mL | clearance ([2]; in vivo, iv, 145 mg m^−2, individual patients, twice weekly i.v. infusion, dose 145 mg m^−2, cycle 2inj8, read-out: CL (observed) (converted)): 3730 mL/min | Cmax [2, 4]: 1340 ng/mL | half-life [2, 4]: 43.2 min | Vd ([2]; in vivo, iv, 145 mg m^−2, individual patients, twice weekly i.v. infusion, dose 145 mg m^−2, cycle 2inj8, read-out: Vz (observed)): 233 L | AUC(0-t) [2, 5]: 6450 ng·h/mL | clearance ([2]; in vivo, iv, individual patients, twice weekly i.v. infusion, dose 145 → 190 mg m^−2, cycle 2inj1, read-out: CL (observed) (converted)): 817 mL/min | Cmax [2, 5]: 4000 ng/mL | half-life [2, 5]: 46.2 min | Vd ([2]; in vivo, iv, individual patients, twice weekly i.v. infusion, dose 145 → 190 mg m^−2, cycle 2inj1, read-out: Vz (observed)): 54 L | AUC(0-t) [2, 6]: 5040 ng·h/mL | clearance ([2]; in vivo, iv, individual patients, twice weekly i.v. infusion, dose 145 → 190 mg m^−2, cycle 2inj8, read-out: CL (observed) (converted)): 1320 mL/min | Cmax [2, 6]: 3340 ng/mL | half-life [2, 6]: 43.2 min | Vd ([2]; in vivo, iv, individual patients, twice weekly i.v. infusion, dose 145 → 190 mg m^−2, cycle 2inj8, read-out: Vz (observed)): 82 L | AUC(0-t) [2, 7]: 7170 ng·h/mL | clearance ([2]; in vivo, iv, individual patients, twice weekly i.v. infusion, dose 145 → 190 mg m^−2, cycle 3inj2, read-out: CL (observed) (converted)): 733 mL/min | Cmax [2, 7]: 6520 ng/mL | half-life [2, 7]: 45 min | Vd ([2]; in vivo, iv, individual patients, twice weekly i.v. infusion, dose 145 → 190 mg m^−2, cycle 3inj2, read-out: Vz (observed)): 48 L | clearance ([2]; in vivo, range over the 25 evaluable patients, read-out: Plasma clearance (CL)): 767 to 3580 mL/min | Vd ([2]; in vivo, range over the 25 evaluable patients, read-out: volume of distribution (Vd)): 39 to 215 L | AUC ([2]; in vivo, at 145 mg m^−2): 3720 ± 930 ng·h/mL | AUC ([2]; in vivo, at 190 mg m^−2 in patients escalated from 145 mg m^−2 after 2 weeks): 3610 ± 183 ng·h/mL | Cmax [2, 8]: 1740 ng/mL | half-life [2, 8]: 32.4 min | Vd ([2]; plasma, iv, 48 mg m^−2, individual patients, twice weekly i.v. infusion, dose 48 mg m^−2, cycle 1inj2, read-out: Vz (observed)): 69 L | AUC(0-t) [2, 9]: 630 ng·h/mL | clearance ([2]; plasma, iv, 48 mg m^−2, individual patients, twice weekly i.v. infusion, dose 48 mg m^−2, cycle 1inj8, read-out: CL (observed) (converted)): 2080 mL/min | Cmax [2, 9]: 2060 ng/mL | half-life [2, 9]: 36.6 min | Vd ([2]; plasma, iv, 48 mg m^−2, individual patients, twice weekly i.v. infusion, dose 48 mg m^−2, cycle 1inj8, read-out: Vz (observed)): 109 L | AUC(0-t) [2, 10]: 498 ng·h/mL | clearance ([2]; plasma, iv, 48 mg m^−2, individual patients, twice weekly i.v. infusion, dose 48 mg m^−2, cycle 2inj8, read-out: CL (observed) (converted)): 2630 mL/min | Cmax [2, 10]: 1630 ng/mL | half-life [2, 10]: 34.2 min | Vd ([2]; plasma, iv, 48 mg m^−2, individual patients, twice weekly i.v. infusion, dose 48 mg m^−2, cycle 2inj8, read-out: Vz (observed)): 131 L | AUC(0-t) [2, 11]: 1500 ng·h/mL | clearance ([2]; plasma, iv, 65 mg m^−2, individual patients, twice weekly i.v. infusion, dose 65 mg m^−2, cycle 1inj2, read-out: CL (observed) (converted)): 1070 mL/min | Cmax [2, 11]: 4370 ng/mL | half-life [2, 11]: 27 min | AUC(0-t) [2, 12]: 566 ng·h/mL | clearance ([2]; plasma, iv, 65 mg m^−2, individual patients, twice weekly i.v. infusion, dose 65 mg m^−2, cycle 1inj3, read-out: CL (observed) (converted)): 3170 mL/min | Cmax [2, 12]: 2070 ng/mL | half-life [2, 12]: 12 min | Vd ([2]; plasma, iv, 65 mg m^−2, individual patients, twice weekly i.v. infusion, dose 65 mg m^−2, cycle 1inj3, read-out: Vz (observed)): 55 L | AUC(0-t) [2, 13]: 1310 ng·h/mL | clearance ([2]; plasma, iv, 65 mg m^−2, individual patients, twice weekly i.v. infusion, dose 65 mg m^−2, cycle 1inj8, read-out: CL (observed) (converted)): 1230 mL/min | Cmax [2, 13]: 4100 ng/mL | half-life [2, 13]: 43.8 min | Vd ([2]; plasma, iv, 65 mg m^−2, individual patients, twice weekly i.v. infusion, dose 65 mg m^−2, cycle 1inj8, read-out: Vz (observed)): 78 L | AUC(0-t) ([2]; plasma, iv, 85 mg m^−2, individual patients, twice weekly i.v. infusion, dose 85 mg m^−2, cycle 1inj2): 1810 ng·h/mL | clearance ([2]; plasma, iv, 85 mg m^−2, individual patients, twice weekly i.v. infusion, dose 85 mg m^−2, cycle 1inj2, read-out: CL (observed) (converted)): 1320 mL/min
